According to US10533207B2, “Bioactivity testing structure for single cell tracking using gelling agents” (QuantaMatrix Inc., priority 2014, dated 2020):

Assays:
[1] = system: ESBL negative E. coli (ATCC 35218); assay: AST on the DAC system at various inoculum concentrations; format: cell-based; details: unit inferred
Description: (§1) The first reason is that large inoculum amounts of antibiotic degrading proteins derived from bacteria may destroy antibiotics and result in an increase in MIC value. The other reason is that larger inoculum amounts of […] bacteria may decrease the number of antibiotic molecules relative to single cells of bacteria and result in an increase in MIC. To verify the reasons for the absence of inoculum effect in the DAC system, ESBL negative E. coli (ATCC 35218), ESBL positive E. coli (ATCC 25922), and clinically obtained E. coli strains, which are well known as a bacterial strain secreting antibiotic-degrading proteins, were tested at inoculum concentrations of 5×10^7, 5×10^6, and 5×10^5 CFU/ml. These concentrations indicate the concentrations of the bacteria in agarose for the DAC system and in liquid for the MDT system.

[2] = system: ESBL positive E. coli (ATCC 25922); assay: as above; format: cell-based; details: unit inferred
Description: as §1

[3] = system: clinically obtained E. coli strain #5; assay: as above; format: cell-based; details: #5 strain, unit inferred
Description: as §1

[4] = system: ESBL negative E. coli (ATCC 35218); assay: AST on the MDT system (broth microdilution) at various inoculum concentrations; format: cell-based
Experimental: (§2) The MIC of cefepime against E. coli was determined according to the standard CLSI guideline except for the concentration of bacteria. 16 h after culture at 37° C., broth microdilution wells were examined.
as §1

[5] = system: ESBL positive E. coli (ATCC 25922); assay: as above; format: cell-based
Experimental: as §2, §1

[6] = system: clinically obtained E. coli strain #5; assay: as above; format: cell-based; details: #5 strain
Experimental: as §2, §1

[7] = system: ESBL positive E. coli strains; assay: Residual efficacy of antibiotic solution after overnight culture, re-tested by MDT; format: cell-based; details: Escherichia coli
Experimental: At each time point, the culture media were filtered to remove the cells and then added to different DST sets to measure the residual efficacies of the antibiotics. Both broth […] and DAC protocol were performed in the same manner as described above.
The present inventors hypothesized that the reason why the absence of inoculum effect in the DAC system may be because proteins released from bacteria are trapped by agarose and cannot degrade the antibiotic, unlike under broth culture conditions. […] These concentrations indicate the concentrations of the bacteria in […] for the DAC system and in liquid for the MDT system.
Thus, the final concentrations of the bacteria in the DAC and […] systems were the same. Cefepime was used in these tests. After culture overnight, the antibiotic solutions in the wells of the DAC and MDT systems was extracted and filtered to obtain the pure antibiotic. MDT using ESBL positive E. coli strains was conducted using the antibiotic.

[8] = system: M. tuberculosis H37Rv; assay: DST of MTB using the DAC system (MIC from time-lapse images); format: cell-based, Mycobacterium tuberculosis
[9] = system: MDR-TB clinical strain; assay: as above; format: cell-based, Mycobacterium tuberculosis
[10] = system: XDR-TB clinical strain; assay: as above; format: cell-based, Mycobacterium tuberculosis
[11] = system: standard strain H37Rv; assay: Inoculum effect test, DST on the DAC system; format: cell-based, Mycobacterium tuberculosis
[12] = system: clinical strain 1088; assay: Inoculum effect on clinical strains on the DAC system; format: cell-based, Mycobacterium tuberculosis
Experimental: (§3) Mycobacterium tuberculosis identified by ZN staining and grown from an L-J slope or MGIT tube and was subjected to DST. For the preparation of inoculation from the LJ culture, colonies up to 14 days were extracted from the grown culture. The colonies were shaken with glass beads to crush large lumps. To obtain a high density (˜5×10^9 CFU/ml), the suspension was centrifuged at 3000 g for 10 min and pellets were resuspended in sterile PBS. Subsequently, the suspension was added to liquid agarose, inoculated in a bacteria-agarose mixture within the range of 10^1 to 5×10^8 CFU/ml, and loaded in the main channel After solidification, 7H9 broth containing each antibiotic was applied to the chamber. All bacterial cells were imaged with an inverted optical microscope (IS71, Olympus).
(§4) Clinical strains express various phenotypes, particularly, in drug susceptibility. […] Rifampicin, isoniazid, streptomycin, and ethambutol were used as test drugs. For the 131 strains, the highest concentration was 1.3×10^9.

[13] = system: clinical strain 131; assay: as above; format: cell-based, Mycobacterium tuberculosis
Experimental: as §3, §4

[14] = system: clinical strain CMS; assay: as above; format: cell-based, Mycobacterium tuberculosis
Experimental: as §3, §4

[15] = system: clinical strain CYD; assay: as above; format: cell-based, Mycobacterium tuberculosis
Experimental: as §3, §4

[16] = system: clinical strain KHS; assay: as above; format: cell-based, Mycobacterium tuberculosis
Experimental: as §3, §4

[17] = system: clinical strain MSH; assay: as above; format: cell-based, Mycobacterium tuberculosis
Experimental: as §3, §4

[18] = inoculum 5*10^5 CFU/ml in agarose
[19] = inoculum 5*10^6 CFU/ml in agarose
[20] = inoculum 5*10^7 CFU/ml in agarose
[21] = inoculum 5*10^5 CFU/ml in liquid, unit not given
[22] = inoculum 5*10^6 CFU/ml in liquid, unit inferred
[23] = inoculum 5*10^7 CFU/ml in liquid, unit inferred
[24] = Mycobacterium tuberculosis, 120 h
[25] = inoculum 10^3/mL, DAC, unit inferred
[26] = inoculum 10^4/mL, DAC, unit inferred
[27] = inoculum 10^5/mL, DAC, unit inferred
[28] = inoculum 10^6/mL, MAC2, unit inferred
[29] = inoculum 10^7/mL, MAC2, unit inferred

CO/N=C(\C(=O)N[C@@H]1C(=O)N2C(C(=O)[O-])=C(C[N+]3(C)CCCC3)CS[C@H]12)c1csc(N)n1 [Cefepime]
64 µg/mL: MIC (AST result, MDT) [6, 22]
All growth: MIC (AST result, MDT) [4, 21] | MIC (AST result, MDT) [5, 21] | MIC (AST result, MDT) [6, 21]
0.06 µg/mL: MIC (AST result, DAC) [1, 18] | MIC (AST result, DAC) [1, 19] | MIC (AST result, DAC) [1, 20] | MIC ([7]; antibiotic solution recovered from DAC wells after overnight culture with 5*10^5 CFU/ml ESBL positive E. coli) | MIC ([7]; antibiotic solution recovered from DAC wells after overnight culture with 5*10^6 CFU/ml ESBL positive E. coli) | MIC ([7]; antibiotic solution recovered from DAC wells after overnight culture with 5*10^7 CFU/ml ESBL positive E. coli)
0.25 µg/mL: MIC ([7]; antibiotic solution recovered from MDT wells after overnight culture with 5*10^7 CFU/ml ESBL positive E. coli)
< 16 µg/mL: MIC (AST result, DAC) [3, 18] | MIC (AST result, DAC) [3, 19] | MIC (AST result, DAC) [3, 20]
0.03 µg/mL: MIC (AST result, DAC) [2, 18] | MIC (AST result, DAC) [2, 19] | MIC (AST result, DAC) [2, 20] | MIC (AST result, MDT) [4, 22] | MIC (AST result, MDT) [4, 23] | MIC (AST result, MDT) [5, 23] | MIC ([7]; antibiotic solution recovered from MDT wells after overnight culture with 5*10^5 CFU/ml ESBL positive E. coli)
16 µg/mL: MIC (AST result, MDT) [6, 23]
0.125 µg/mL: MIC ([7]; antibiotic solution recovered from MDT wells after overnight culture with 5*10^6 CFU/ml ESBL positive E. coli)
4 µg/mL: MIC (AST result, MDT) [5, 22]

CC[C@@H](CO)NCCN[C@@H](CC)CO [EMB, ethambutol]
> 10 µg/mL: MIC [9, 24] | MIC (DAC) [13, 25] | MIC (DAC) [13, 26] | MIC (DAC) [13, 27] | MIC (DAC) [13, 28] | MIC (DAC) [13, 29]
1.25 µg/mL: MIC (DAC) [11, 26] | MIC (DAC) [11, 27] | MIC (DAC) [14, 26] | MIC (DAC) [14, 27] | MIC (DAC) [16, 27] | MIC (DAC) [17, 26] | MIC (DAC) [17, 29]
sensitive: susceptibility of the strain (in words) ([8]; from the MIC data)
R: susceptibility determined from the MIC data and the critical concentrations ([9]; DAC system, MDR strain) | susceptibility determined from the MIC data and the critical concentrations ([10]; DAC system, XDR strain)
5 µg/mL: MIC ([8]; Mycobacterium tuberculosis, 120 h, images over 5 days) | MIC (DAC) [15, 29]
≥ 10 µg/mL: MIC (DAC) [12, 28] | MIC (DAC) [12, 29]
2.5 µg/mL: MIC (DAC) [11, 25] | MIC (DAC) [11, 28] | MIC (DAC) [11, 29] | MIC (DAC) [14, 28] | MIC (DAC) [14, 29] | MIC (DAC) [15, 26] | MIC (DAC) [15, 27] | MIC (DAC) [15, 28] | MIC (DAC) [16, 26] | MIC (DAC) [16, 28] | MIC (DAC) [16, 29] | MIC (DAC) [17, 27] | MIC (DAC) [17, 28]
S: susceptibility determined from the MIC data and the critical concentrations [8]
10 µg/mL: MIC [10, 24] | MIC (DAC) [12, 25] | MIC (DAC) [12, 26] | MIC (DAC) [12, 27]
